Columns and labels:
VM precursor cultures = assay: Immuno-cytochemistry and TH+ cell counting in VM precursor cultures; assay type: cell-based, rat
Procedure: Briefly, ventral mesencephalic tissues were dissected from E14.5 Sprague-Dawley (SD) rats, and then dissociated enzymatically (0.1% trypsin) and mechanically. Cells were seeded into 24-well (1×10^5/cm^2) culture plates pre-coated with 20 μg/mL poly-D-lysine (Sigma-Aldrich), and were maintained in 0.5 mL/well of minimum essential medium (MEM) supplemented with 10% fetal bovine serum (FBS), 10% horse serum (HS), 1 g/L glucose, 2 mM L-glutamine, 1 mM sodium pyruvate, 100 μM nonessential amino acids, 100 U/mL penicillin, and 100 μg/mL streptomycin (all purchased from Invitrogen). Cultures were maintained at 37° C. in a humidified atmosphere of 5% CO2 and 95% air. For DA neuron differentiation, VM precursor cultures, four hours after seeding, were switched to Dulbecco's Modified Eagle's Medium (DMEM)/Ham's F12 (1:1) containing N2 supplement (Invitrogen, Carlsbad, Calif.), penicillin and streptomycin. Immediately following the switch to DMEM/F12 medium, VM precursor cells were treated with various concentration of rat UCN (from Sigma-Aldrich, St. Louis, Mo.) for the indicated periods. For neutralization of endogenous UCN bioactivity, anti-UCN antibody (15 μg/mL) (Santa Cruz Biotechnology, Santa Cruz, Calif.) was added to the VM precursor cultures.
For immuno-cytochemistry, cells were fixed with 4% paraformaldehyde followed by blocking with PBS containing 0.4% Triton X-100, 3% normal goat serum and 2% bovine serum albumin (BSA) for 1 h at room temperature. After blocking, cells were incubated overnight at room temperature with primary antibodies. Primary antibodies were rabbit anti-UCN (1:200), mouse anti-TH (1:2000) (both from Sigma-Aldrich), goat anti-CRHR1 (1:100), rabbit anti-CRHR2 (1:250), rat anti-dopamine transporter (DAT, 1:200), chicken anti-MAP2 (1:5000) (all from Abcam, Cambridge, Mass.), rabbit anti-Nurr1 (1:100, Santa Cruz Biotechnology), mouse anti-Nurr1 (1:100, R&D Systems, Minneapolis, Minn.), rabbit anti-TH (1:1000), mouse anti-NeuN (1:200) (both from Chemicon, Temecula, Calif.), rabbit anti-acetyl-histone H3 (1:1000, Upstate Biotechnology, Lake Placid, N.Y.), rabbit anti-Foxa2 (1:500, Cell Signaling Technology), and rabbit anti-Pitx3 (1:100, Invitrogen).
For detection of dopaminergic neurons, the bound anti-TH antibody was visualized by incubation with an appropriate biotinylated secondary antibody followed by the Vectastain avidin-biotin-peroxidase (ABC) reagents (Vector Laboratories, Burlingame, Calif.) and color development with 3,3′-diaminobenzidine. The number of TH-positive neurons were counted in the entire surface area of a culture well or coverslip. For fluorescent double-labeling experiments, cells were incubated for 1 h at room temperature with rhodamine-conjugated donkey anti-mouse IgG (1:250), FITC-conjugated goat anti-rabbit IgG (1:250) or FITC-conjugated donkey anti-goat IgG (1:200) secondary antibodies (all from Jackson Immuno Research, West Grove, Pa.). Samples were counter-stained with Hoechst 33342 (5 μg/mL, Sigma-Aldrich) or DAPI (1 μg/mL), and mounted with 50% glycerol in PBS. Microscopic observations were done with a Zeiss Axiovert 200 M fluorescent microscope or a Zeiss LSM 510 META confocal imaging system (Carl Zeiss, Oberkochen, Germany). Immuno-reactive or Hoechst 33342-stained cells were counted in at least 10 random areas of each culture coverslip at a magnification of 100×.

[1] = tested on: TH promoter in SH-SY5Y cells; assay: TH promoter assay (pTH6.0-GL3 luciferase) in SH-SY5Y cells; assay type: cell-based, human; settings: 24 hours; for elicited TH promoter activity on forced MeCP2 or CoREST expression / elicited TH promoter activity on co-transfection with HDAC1: 1 μM UCN or 1.25 mM SB; for elicited TH promoter activity on co-transfection with HDAC1: pK7-HDAC1 co-transfection
Source text: (§1) The luciferase reporter vector pTH6.0-GL3 constructed by engineering the 6.0 kb upstream sequences of the rat TH (TH6.0) gene into pGL3 was kindly provided by Dr. Kwang-Soo Kim (Harvard Medical School, Belmont, Mass.). Vector expressing Nurr1 (mouse) was constructed by inserting the respective cDNA into pAAV-MCS vector (pAAV-Nurr1), in which the cloned gene is designed to be expressed under the control of the cytomegalovirus (CMV) immediate-early promoter. pTH6.0-GL3 alone or combined with pAAV-Nurr1 were transfected into a human neuro-blastoma SH-SY5Y cell line or cortical NPCs, respectively, using Lipofectamine 2000 (Invitrogen) according to the protocol of the manufacturer. For determine the effect of MeCP2-CoREST-HDAC1 repressor complex on TH promoter activity, the SH-SY5Y cells were double transfected with pTH6.0-GL3 and pCMV6-Entry-Mecp2 (Flag-tagged MeCP2)/or pCMV6-Entry-Rcor1 (Flag-tagged CoREST) (both from OriGene Technologies, Rockville, Md.)/or pK7-HDAC1-GFP (Addgene). At 24 h after transfection, cells were treated with 1 μM UCN or 1.25 mM SB for another 24 h. Luciferase activity of cell lysates was determined luminometrically by the luciferase assay system (Promega, Madison, Wis.) as specified by the manufacturer. Luciferase activity was normalized to the protein content of the extracts. Relative luciferase activity was determined to reflect promoter activity of TH, expressed as the fold increase relative to the activity of control or untreated mock control.

[2] = tested on: TH promoter in Nurr1-transfected cortical NPCs; assay: TH promoter assay (pAAV-Nurr1 and pTH6.0-GL3) in cortical NPCs; assay type: cell-based, rat; settings: 24 hours
Source text: as §1, with “At 24 h after transfection, cells were treated with 1 μM UCN or 1.25 mM SB for another 24 h.” left out

Compound	% TH+ cells out of total Nurr1+ cells (conversion of Nurr1+ precursors) (VM precursor cultures; 1.25 mM SB, 3 days)	cells with TH staining (VM precursor cultures; 1.25 mM SB, 3 days)	elicited TH promoter activity on forced MeCP2 or CoREST expression [1]	TH promoter activity ([1]; 1.25 mM SB)	elicited TH promoter activity on co-transfection with HDAC1 [1]	TH promoter activity ([2]; 0.5 mM SB)	number of TH+ neurons over time (VM precursor cultures; 1 μM UCN as early as 1 day in vitro vs control medium at 4 days in vitro)	Nurr1-immuno-reactive intensity (VM precursor cultures; 1 μM UCN, 2 to 3 days)	level of Foxa2 and Pitx3 in Nurr1+ cells (VM precursor cultures; 1 μM UCN, 2 to 3 days)	TH+ cells co-expressing NeuN, MAP2 and DAT (VM precursor cultures; 1 μM UCN, 4 days, double immuno-staining)	number of Nurr1+ cells (VM precursor cultures; UCN treated cultures (control 4.91%±0.54%))	differentiation of Nurr1+/TH- precursors into Nurr1+/TH+ DA neurons (VM precursor cultures; UCN vs control)	numbers of TH+ cells (VM precursor cultures; increasing doses of UCN, 3 days)	TH promoter activity (relative luciferase activity) ([1]; 1 μM UCN)	TH promoter activity (relative luciferase activity) ([2]; 1 μM UCN)
CCCC(=O)[O-].[Na+] [SB, sodium butyrate, reference compound]	increased DA cell numbers was through conversion of Nurr1^+ precursors into DA neurons	increase in cells with TH staining	attenuation	increase TH promoter activity	significantly attenuated	increase TH promoter activity									
Urocortin [UCN]			attenuation		significantly attenuated		clearly higher than that of control medium	increased	increased level	all the TH^+ cells	4.68%±0.4%	more Nurr1^+ cells develop concomitant TH^+ expression	dose-dependent increase	activation of the TH promoter	activation of the TH promoter

Reference: patent US20160355782A1, “METHOD FOR ENHANCING DIFFERENTIATION OF DOPAMINERGIC NEURONS” (Buddhist Tzu Chi Medical Foundation, priority 2015, published 2016)
